Source: patent publication US20040224958A1, “Pyridopyrimidinone derivatives for treatment of neurodegenerative disease” (priority 2000, published 2004)
Read-outs that look alike come from different tables or passages of the source.

Columns and labels:
Cdk5/p25 = Cdk5/p25 (Homo sapiens, UniProt Q00535); test: Cyclin-Dependent Kinase 5 High Throughput Screening (cdk5-HTS) Assay; type: biochemical; conditions: high throughput screen
Method in brief: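 Cdk5/p25 (1.0 μg/mL) phosphorylates GST-RbCOOH (20 μg/mL) in 50 mM Tris pH 7.4 with 10 mM MgCl2 and 20 μM ATP spiked with [γ33P]ATP, 30 min at room temperature. After EDTA stop, substrate captured on glutathione-coated plates; 33P incorporation counted by scintillation; IC50 determined.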

cdc2/cyclinB = cdc2/cyclinB (Homo sapiens, UniProt P06493); test: Cyclin-Dependent Kinase Assay cdc2/cyclinB
cdk2/cyclinA = cdk2/cyclinA (Homo sapiens, UniProt P24941); test: Cyclin-Dependent Kinase Assay cdk2/cyclinA
cdk4/D = cdk4/D (Homo sapiens, UniProt P11802); test: Cyclin-Dependent Kinase 4 (cdk4) Assay; type: biochemical; conditions: read-out: cdk4/D IC50
cdk2/cyclinE = cdk2/cyclinE (Homo sapiens, UniProt P24941); test: Cyclin-Dependent Kinase Assay cdk2/cyclinE

Sequence of cdc2/cyclinB (P06493 whole entry): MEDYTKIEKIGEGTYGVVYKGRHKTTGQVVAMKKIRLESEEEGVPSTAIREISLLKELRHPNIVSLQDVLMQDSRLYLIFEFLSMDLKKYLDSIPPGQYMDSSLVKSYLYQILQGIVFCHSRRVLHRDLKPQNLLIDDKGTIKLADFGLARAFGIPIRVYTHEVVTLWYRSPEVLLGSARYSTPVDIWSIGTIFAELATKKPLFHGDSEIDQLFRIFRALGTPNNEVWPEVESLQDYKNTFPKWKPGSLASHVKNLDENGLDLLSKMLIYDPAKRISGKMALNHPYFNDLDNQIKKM
Sequence of cdc2/cyclinB (P14635 whole entry, further chain): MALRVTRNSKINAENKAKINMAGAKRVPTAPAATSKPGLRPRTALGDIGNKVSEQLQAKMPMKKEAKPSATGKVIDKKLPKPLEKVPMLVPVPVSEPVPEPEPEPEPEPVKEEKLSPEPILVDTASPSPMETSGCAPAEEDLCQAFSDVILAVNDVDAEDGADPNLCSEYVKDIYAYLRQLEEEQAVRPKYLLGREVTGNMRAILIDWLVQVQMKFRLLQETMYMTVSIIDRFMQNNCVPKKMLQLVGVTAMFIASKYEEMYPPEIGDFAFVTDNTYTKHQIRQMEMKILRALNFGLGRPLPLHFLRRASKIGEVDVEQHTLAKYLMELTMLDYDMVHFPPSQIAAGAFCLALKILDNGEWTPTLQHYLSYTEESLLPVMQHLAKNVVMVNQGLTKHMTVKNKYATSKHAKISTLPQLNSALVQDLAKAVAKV
Sequence of cdk4/D (P11802 whole entry): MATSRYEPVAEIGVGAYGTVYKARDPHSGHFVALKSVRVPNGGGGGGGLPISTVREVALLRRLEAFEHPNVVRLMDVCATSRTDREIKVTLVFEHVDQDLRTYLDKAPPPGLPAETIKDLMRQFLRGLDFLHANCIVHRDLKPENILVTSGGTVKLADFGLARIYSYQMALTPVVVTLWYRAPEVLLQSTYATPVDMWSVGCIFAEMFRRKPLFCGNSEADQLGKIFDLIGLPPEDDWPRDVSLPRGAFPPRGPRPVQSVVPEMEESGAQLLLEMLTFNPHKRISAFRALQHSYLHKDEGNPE
Sequence of cdk4/D (P24385 whole entry, further chain): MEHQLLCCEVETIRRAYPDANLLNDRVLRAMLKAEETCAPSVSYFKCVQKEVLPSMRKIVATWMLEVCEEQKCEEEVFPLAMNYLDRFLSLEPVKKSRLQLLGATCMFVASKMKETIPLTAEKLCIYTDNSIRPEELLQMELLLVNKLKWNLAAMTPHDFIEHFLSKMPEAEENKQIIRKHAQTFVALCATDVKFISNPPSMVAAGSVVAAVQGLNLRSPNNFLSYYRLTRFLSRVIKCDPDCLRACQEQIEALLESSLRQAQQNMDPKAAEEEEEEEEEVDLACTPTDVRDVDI

| IC50 (Cdk5/p25) | IC50 (cdc2/cyclinB) | IC50 (cdk2/cyclinA; cdk2/A IC50) | IC50 (cdk4/D) | IC50 (cdk2/cyclinE; cdk2/E IC50) | IC50 (cdc2/cyclinB; read-out: cdk1/B IC50) | IC50 (cdk2/cyclinA; read-out: cdk2/A IC50) | IC50 (cdk2/cyclinE; read-out: cdk2/E IC50) | Molecule |
| --- | --- | --- | --- | --- | --- | --- | --- | --- |
| 180 nM | 390 nM | 430 nM | 1800 nM | 450 nM |  |  |  | CCCn1c(=O)ccc2cnc(Nc3cc(F)c(F)c(F)c3)nc21 [Example 359, 8-Propyl-2-(3,4,5-trifluoro-phenylamino)-8H-pyrido[2,3-d]pyrimidin-7-one] |
| 25 nM | 130 nM | 310 nM | 130 nM | 110 nM |  |  |  | CCC(C)n1c(=O)ccc2cnc(Nc3ccc(Cl)c(C)c3)nc21 (centres unmarked) [Example 456, 8-sec-Butyl-2-(4-chloro-3-methyl-phenylamino)-8H-pyrido[2,3-d]pyrimidin-7-one] |
| 180 nM | 300 nM | 2000 nM | 250 nM | 660 nM |  |  |  | CCC(C)n1c(=O)ccc2cnc(Nc3cc(OC)cc(C(F)(F)F)c3)nc21 (centres unmarked) [Example 463, 8-sec-Butyl-2-(3-methoxy-5-trifluoromethyl-phenylamino)-8H-pyrido[2,3-d]pyrimidin-7-one] |
| 255 nM | 445 nM | 615 nM | 855 nM | 187 nM |  |  |  | O=c1ccc2cnc(Nc3ccc(O)cc3F)nc2n1CC1CC1 [Example 566, 8-Cyclopropylmethyl-2-(2-fluoro-4-hydroxy-phenylamino)-8H-pyrido[2,3-d]pyrimidin-7-one] |
| 100 nM |  |  | 190 nM |  | 260 nM | 820 nM | 180 nM | 2-(3-Chloro-4-iodo-phenylamino)-8-propyl-8H-pyrido[2,3-d]pyrimidin-7-one [Example 573] |
| 18 nM | 62 nM | 56 nM | 130 nM | 29 nM |  |  |  | CCC(CC)n1c(=O)ccc2cnc(Nc3ccc4oc(=O)[nH]c4c3)nc21 [Example 517, 8-(1-Ethyl-propyl)-2-(2-oxo-2,3-dihydro-benzoxazol-5-ylamino)-8H-pyrido[2,3-d]pyrimidin-7-one] |
| 12.3 nM | 49.5 nM | 25.5 nM | 42 nM | 8.5 nM |  |  |  | O=c1ccc2cnc(Nc3ccc4[nH]nnc4c3)nc2n1C1CCCC1 [Example 537, 2-(1H-Benzotriazol-5-ylamino)-8-cyclopentyl-8H-pyrido[2,3-d]pyrimidin-7-one] |
| 615 nM | 1430 nM | 2000 nM | 1350 nM | 917 nM |  |  |  | Cn1c(=O)ccc2cnc(Nc3ccc4[nH]ccc4c3)nc21 [Example 614, 2-(1H-Indol-5-ylamino)-8-methyl-8H-pyrido[2,3-d]pyrimidin-7-one] |
| 39.1 nM | 134 nM | 418 nM | 938 nM | 69.3 nM |  |  |  | CCC(CC)n1c(=O)ccc2cnc(Nc3ccc(F)c(Cl)c3)nc21 [Example 481, 2-(3-Chloro-4-fluoro-phenylamino)-8-(1-ethyl-propyl)-8H-pyrido[2,3-d]pyrimidin-7-one] |
| 190 nM | 510 nM | 200 nM | 310 nM | 110 nM |  |  |  | O=c1ccc2cnc(Nc3ccc(O)c(CN4CCOCC4)c3)nc2n1C1CCCC1 [Example 550, 8-Cyclopentyl-2-(4-hydroxy-3-morpholin-4-ylmethyl-phenylamino)-8H-pyrido[2,3-d]pyrimidin-7-one] |
| 114 nM | 429 nM | 2370 nM | 2120 nM | 520 nM |  |  |  | CCCn1c(=O)ccc2cnc(Nc3ccc(Br)c(C(F)(F)F)c3)nc21 [Example 314, 2-(4-Bromo-3-trifluoromethyl-phenylamino)-8-propyl-8H-pyrido[2,3-d]pyrimidin-7-one] |
| 36 nM | 140 nM | 260 nM | 160 nM | 73 nM |  |  |  | CCC(C)n1c(=O)ccc2cnc(Nc3ccc(F)c(Cl)c3)nc21 (centres unmarked) [Example 460, 8-sec-Butyl-2-(3-chloro-4-fluoro-phenylamino)-8H-pyrido[2,3-d]pyrimidin-7-one] |
| 76 nM | 480 nM | 160 nM | 250 nM | 230 nM |  |  |  | CC(C)n1c(=O)ccc2cnc(Nc3ccc(C#N)cc3)nc21 [Example 433, 4-(8-Isopropyl-7-oxo-7,8-dihydro-pyrido[2,3-d]pyrimidin-2-ylamino)-benzonitrile] |
| 72 nM | 102 nM | 440 nM | 230 nM | 127 nM |  |  |  | CCC(CC)n1c(=O)ccc2cnc(Nc3ccc(NC(=O)OC(C)(C)C)cc3)nc21 [Example 494, {4-[8-(1-Ethyl-propyl)-7-oxo-7,8-dihydro-pyrido[2,3-d]pyrimidin-2-ylamino]-phenyl}-carbamic acid tert-butyl ester] |
| 69.1 nM | 216 nM | 1280 nM | 430 nM | 289 nM |  |  |  | CCCn1c(=O)ccc2cnc(Nc3ccc(C)c(C)c3)nc21 [Example 318, 2-(3,4-Dimethyl-phenylamino)-8-propyl-8H-pyrido[2,3-d]pyrimidin-7-one] |
| 290 nM | 2100 nM | 1600 nM | 360 nM | 700 nM |  |  |  | CCCn1c(=O)ccc2cnc(Nc3ccc4c(c3)CCN4)nc21 [Example 357, 2-(2,3-Dihydro-1H-indol-5-ylamino)-8-propyl-8H-pyrido[2,3-d]pyrimidin-7-one] |
| 54 nM | 48 nM | 210 nM | 180 nM | 150 nM |  |  |  | CC1Nc2ccc(Nc3ncc4ccc(=O)n(C5CCCC5)c4n3)cc2C1C (centres unmarked) [Example 552, 8-Cyclopentyl-2-(2,3-dimethyl-2,3-dihydro-1H-indol-5-ylamino)-8H-pyrido[2,3-d]pyrimidin-7-one] |
| 43.5 nM | 68 nM | 138 nM | 180 nM | 52.3 nM |  |  |  | CC(C)n1c(=O)ccc2cnc(Nc3ccc(O)c(Cl)c3)nc21 [Example 413, 2-(3-Chloro-4-hydroxy-phenylamino)-8-isopropyl-8H-pyrido[2,3-d]pyrimidin-7-one] |
| 43 nM | 210 nM | 640 nM | 410 nM | 130 nM |  |  |  | CCn1c(=O)ccc2cnc(Nc3ccc(F)c(C)c3)nc21 [Example 294, 8-Ethyl-2-(4-fluoro-3-methyl-phenylamino)-8H-pyrido[2,3-d]pyrimidin-7-one] |
| 86 nM | 340 nM | 1000 nM | 390 nM | 990 nM |  |  |  | CCCn1c(=O)ccc2cnc(Nc3ccc(Br)c(C)c3)nc21 [Example 360, 2-(4-Bromo-3-methyl-phenylamino)-8-propyl-8H-pyrido[2,3-d]pyrimidin-7-one] |
| 37 nM | 51.5 nM | 105 nM | 330 nM | 52.7 nM |  |  |  | CCC(C)n1c(=O)ccc2cnc(Nc3cccc([N+](=O)[O-])c3)nc21 (centres unmarked) [Example 453, 8-sec-Butyl-2-(3-nitro-phenylamino)-8H-pyrido[2,3-d]pyrimidin-7-one] |
| 33 nM | 47 nM | 310 nM | 150 nM | 140 nM |  |  |  | CCC(CC)n1c(=O)ccc2cnc(Nc3ccc(C)c(NS(C)(=O)=O)c3)nc21 [Example 519, N-{5-[8-(1-Ethyl-propyl)-7-oxo-7,8-dihydro-pyrido[2,3-d]pyrimidin-2-ylamino]-2-methyl-phenyl}-methanesulfonamide] |
| 69.4 nM | 215 nM | 331 nM | 486 nM | 138 nM |  |  |  | CCCn1c(=O)ccc2cnc(Nc3ccc(OC)c(Cl)c3)nc21 [Example 310, 2-(3-Chloro-4-methoxy-phenylamino)-8-propyl-8H-pyrido[2,3-d]pyrimidin-7-one] |
| 54 nM | 260 nM | 260 nM | 44 nM | 99.3 nM |  |  |  | CC(C)n1c(=O)ccc2cnc(Nc3ccc4[nH]ccc4c3)nc21 [Example 409, 2-(1H-Indol-5-ylamino)-8-isopropyl-8H-pyrido[2,3-d]pyrimidin-7-one] |
| 130 nM | 79 nM | 270 nM | 550 nM | 130 nM |  |  |  | CC1Nc2ccc(Nc3ncc4ccc(=O)n(CC5CC5)c4n3)cc2C1C (centres unmarked) [Example 580, 8-Cyclopropylmethyl-2-(2,3-dimethyl-2,3-dihydro-1H-indol-5ylamino)-8H-pyrido[2,3-d]pyrimidin-7-one] |
| 140 nM | 290 nM | 520 nM | 80 nM | 270 nM |  |  |  | CC(=O)Nc1cc(Nc2ncc3ccc(=O)n(CC4CC4)c3n2)ccc1C#N [Example 574, N-[2-Cyano-5-(8-cyclopropylmethyl-7-oxo-7,8-dihydro-pyrido[2,3-d]pyrimidin-2-ylamino)-phenyl]-acetamide] |
| 215 nM | 955 nM | 380 nM | 1110 nM | 690 nM |  |  |  | CC(C)n1c(=O)ccc2cnc(Nc3ccc4cn[nH]c4c3)nc21 [Example 438, 2-(1H-Indazol-6-ylamino)-8-isopropyl-8H-pyrido[2,3-d]pyrimidin-7-one] |
| 309 nM | 360 nM | 1480 nM | 3040 nM | 334 nM |  |  |  | CCCn1c(=O)ccc2cnc(Nc3cccc(C(F)(F)F)c3)nc21 [Example 313, 8-Propyl-2-(3-trifluoromethyl-phenylamino)-8H-pyrido[2,3-d]pyrimidin-7-one] |
